Experimental data from ChEMBL document CHEMBL1687767, “New antiseptic peptides to protect against endotoxin-mediated shock” (Antimicrob Agents Chemother, 2010).
≈ marks a conversion by molar mass, not a printed value. Calls of active or inactive are those of the source. The rule behind the calls is not given here. Residues, ends and D or L forms follow the SMILES beside them.

How the values were obtained:
[1] = system: HepG2; experiment: Cytotoxicity against human HepG2 cells assessed as effect on respiration rate at 100 ug/ml by Chip-based Bionas system; format: cell-based
[2] = system: PBMC; experiment: Cytotoxicity against human PBMC cells assessed as effect on respiration rate at 10 ug/ml by Chip-based Bionas system; format: cell-based
[3] = system: HaCaT; experiment: Cytotoxicity against human HaCaT cells at 100 ug/ml by MTT assay; format: cell-based
[4] = system: HeLa; experiment: Cytotoxicity against human HeLa cells at 100 ug/ml by MTT assay; format: cell-based
[5] = system: Jurkat; experiment: Cytotoxicity against human Jurkat cells assessed as effect on respiration rate at 100 ug/ml by Chip-based Bionas system; format: cell-based
[6] = Cytotoxicity against human LS 174T cells assessed as effect on respiration rate at 10 ug/ml by Chip-based Bionas system; format: cell-based; conditions: ls174t
[7] = species on record: Homo sapiens; experiment: Antiinflammatory activity in human MNC assessed as inhibition of LPS-induced TNFalpha production at compound: LPS ratio of 100:1 weight percent by ELISA; format: functional
[8] = system: HepG2; experiment: Cytotoxicity against human HepG2 cells assessed as effect on respiration rate at 10 ug/ml by Chip-based Bionas system; format: cell-based
[9] = Toxicity in human RBC assessed as hemolysis upto 25 ug/ml; format: cell-based; conditions: erythrocyte
[10] = system: Mus musculus; experiment: Antisepsis activity in Salmonella enterica serovar Minnesota R60 LPS-induced C57BL/6 mouse lethal endotoxin shock model assessed as mouse survival at 2.5 ug, ip administered immediately after LPS challenge measured 48 hrs post LPS challenge; format: functional, organism-based
[11] = system: HeLa; experiment: Cytotoxicity against human HeLa cells at 10 ug/ml by MTT assay; format: cell-based
[12] = system: Lipopolysaccharide (LPS); experiment: Binding affinity to Salmonella enterica serovar Minnesota R60 LPS at [compound]/[LPS] ratio of 0.3 by isothermal titration calorimetry; conditions: Salmonella enterica subsp. enterica serovar Minnesota
[13] = system: Jurkat; experiment: Cytotoxicity against human Jurkat cells assessed as effect on respiration rate at 10 ug/ml by Chip-based Bionas system; format: cell-based
[14] = system: PBMC; experiment: Cytotoxicity against human PBMC cells assessed as effect on respiration rate at 100 ug/ml by Chip-based Bionas system; format: cell-based
[15] = Cytotoxicity against human LS 174T cells assessed as effect on respiration rate at 100 ug/ml by Chip-based Bionas system; format: cell-based; conditions: ls174t
[16] = system: Mus musculus; experiment: Antisepsis activity in Salmonella enterica serovar Minnesota R60 LPS-induced C57BL/6 mouse lethal endotoxin shock model assessed as mouse survival at 12.5 ug, ip administered immediately after LPS challenge; format: functional, organism-based
[17] = system: HaCaT; experiment: Cytotoxicity against human HaCaT cells at 10 ug/ml by MTT assay; format: cell-based
[18] = species on record: Homo sapiens; experiment: Antiinflammatory activity in human MNC assessed as inhibition of LPS-induced TNFalpha production at compound: LPS ratio of 10:1 weight percent by ELISA; format: functional
[19] = system: Mus musculus; experiment: Antisepsis activity in Pseudomonas aeruginosa LPS-induced C57BL/6 mouse lethal endotoxin shock model assessed as mouse survival at 12.5 ug, ip administered immediately after LPS challenge; format: functional, organism-based
[20] = species on record: Homo sapiens; experiment: Antiinflammatory activity in human MNC assessed as inhibition of LPS-induced TNFalpha production at compound: LPS ratio of <10:1 weight percent by ELISA; format: functional
[21] = system: Staphylococcus aureus; experiment: Antimicrobial activity against Staphylococcus aureus ATCC 25923 by broth microdilution method; format: functional
[22] = system: Staphylococcus aureus; experiment: Antimicrobial activity against methicillin-resistant Staphylococcus aureus ATCC 43300 by broth microdilution method; format: functional
[23] = system: Stenotrophomonas maltophilia; experiment: Antimicrobial activity against […] Stenotrophomonas maltophilia CUN 3998-00 by broth microdilution method; format: functional
[24] = system: Escherichia coli; experiment: Antimicrobial activity against Escherichia coli ATCC 25922 by broth microdilution method; format: functional
[25] = system: Acinetobacter baumannii; experiment: Antimicrobial activity against […] Acinetobacter baumannii ATCC 19606 by broth microdilution method; format: functional
[26] = system: Staphylococcus aureus; experiment: Antimicrobial activity against methicillin-resistant Staphylococcus aureus CUN 3792-99 by broth microdilution method; format: functional
[27] = system: Pseudomonas aeruginosa; experiment: Antimicrobial activity against Pseudomonas aeruginosa ATCC 27853 by broth microdilution method; format: functional
[28] = system: Pseudomonas aeruginosa; experiment: Antimicrobial activity against Pseudomonas aeruginosa CUN 4158-02 by broth microdilution method; format: functional
[29] = system: Bordetella bronchiseptica; experiment: Antimicrobial activity against Bordetella bronchiseptica CUN11844-99 by broth microdilution method; format: functional

| Compound | inhibition [7] | Activity [9] | Activity [19] | MIC [21] [µg/mL] | MIC [22] [µg/mL] | MIC [23] [µg/mL] | MIC [24] [µg/mL] | MIC [25] [µg/mL] | MIC [26] [µg/mL] | MIC [27] [µg/mL] | MIC [28] [µg/mL] | MIC [29] [µg/mL] | further results |
| --- | --- | --- | --- | --- | --- | --- | --- | --- | --- | --- | --- | --- | --- |
| N=C(N)NCCC[C@H](NC(=O)[C@H](Cc1ccc(O)cc1)NC(=O)[C@H](CCCCN)NC(=O)[C@H](CCCCN)NC(=O)[C@H](CS)NC(=O)CN)C(=O)N[C@@H](CCCNC(=N)N)C(=O)N[C@@H](Cc1ccccc1)C(=O)N[C@@H](CCCNC(=N)N)C(=O)N[C@@H](Cc1c[nH]c2ccccc12)C(=O)N[C@@H](CCCCN)C(=O)N[C@@H](Cc1ccccc1)C(=O)N[C@@H](CCCCN)C(=O)NCC(=O)N[C@@H](CCCCN)C(=O)N[C@@H](Cc1ccccc1)C(=O)N[C@@H](Cc1c[nH]c2ccccc12)C(=O)N[C@@H](Cc1ccccc1)C(=O)N[C@@H](Cc1c[nH]c2ccccc12)C(=O)NCC(=O)O | Active | Non-toxic | – | – | – | – | – | – | – | – | – | – | Activity [1]: Toxic; Activity [2]: Non-toxic; Activity [3]: Toxic; Activity [4]: Toxic; Activity [5]: Toxic; Activity [6]: Non-toxic; Activity [8]: Non-toxic; Activity [10]: Active; Activity [11]: Non-toxic; Activity [12]: Active; Activity [13]: Non-toxic; Activity [14]: Toxic; Activity [15]: Toxic; Activity [16]: Active; Activity [17]: Non-toxic |
| POLYMYXIN B | – | – | Active | – | – | – | – | – | – | – | – | – | inhibition [18]: Active; Activity [16]: Active; inhibition [20]: Active |
| N=C(N)NCCC[C@H](NC(=O)CNC(=O)[C@H](CCCCN)NC(=O)[C@H](Cc1ccccc1)NC(=O)[C@H](CCCCN)NC(=O)[C@H](Cc1c[nH]c2ccccc12)NC(=O)[C@H](CCCNC(=N)N)NC(=O)[C@H](Cc1ccccc1)NC(=O)[C@H](CCCCN)NC(=O)[C@H](CCCCN)NC(=O)[C@H](Cc1ccc(O)cc1)NC(=O)[C@H](CCCNC(=N)N)NC(=O)[C@H](CCCNC(=N)N)NC(=O)CN)C(=O)N[C@@H](Cc1c[nH]c2ccccc12)C(=O)N[C@@H](Cc1ccccc1)C(=O)N[C@@H](Cc1c[nH]c2ccccc12)C(=O)N[C@@H](Cc1ccccc1)C(=O)NCC(=O)O (H-GRRYKKFRWKFKGRWFWFG-OH) | Active | Non-toxic | inactive | 8 (≈ 3.03 µM) | 8 (≈ 3.03 µM) | 32 (≈ 12.1 µM) | 16 (≈ 6.07 µM) | 16 (≈ 6.07 µM) | 8 (≈ 3.03 µM) | 16 (≈ 6.07 µM) | 32 (≈ 12.1 µM) | 128 (≈ 48.5 µM) | – |
| N=C(N)NCCC[C@H](NC(=O)CNC(=O)[C@H](CCCCN)NC(=O)[C@H](CCCNC(=N)N)NC(=O)[C@H](Cc1ccccc1)NC(=O)[C@H](CCCCN)NC(=O)[C@H](Cc1c[nH]c2ccccc12)NC(=O)[C@H](CCCNC(=N)N)NC(=O)[C@H](Cc1ccccc1)NC(=O)[C@H](CCCNC(=N)N)NC(=O)[C@H](CCCNC(=N)N)NC(=O)[C@H](Cc1ccc(O)cc1)NC(=O)[C@H](CCCCN)NC(=O)[C@H](CCCCN)NC(=O)CN)C(=O)N[C@@H](Cc1ccccc1)C(=O)N[C@@H](Cc1c[nH]c2ccccc12)C(=O)N[C@@H](Cc1ccccc1)C(=O)N[C@@H](Cc1c[nH]c2ccccc12)C(=O)NCC(=O)O (H-GKKYRRFRWKFRKGRFWFWG-OH) | Active | – | inactive | 16 (≈ 5.73 µM) | 16 (≈ 5.73 µM) | 64 (≈ 22.9 µM) | 16 (≈ 5.73 µM) | 16 (≈ 5.73 µM) | 16 (≈ 5.73 µM) | 16 (≈ 5.73 µM) | 32 (≈ 11.5 µM) | 4 (≈ 1.43 µM) | – |
| N=C(N)NCCC[C@H](NC(=O)[C@H](Cc1ccc(O)cc1)NC(=O)[C@H](CCCCN)NC(=O)[C@H](CCCCN)NC(=O)[C@H](CS)NC(=O)CN)C(=O)N[C@@H](CCCNC(=N)N)C(=O)N[C@@H](Cc1ccccc1)C(=O)N[C@@H](CCCNC(=N)N)C(=O)N[C@@H](Cc1c[nH]c2ccccc12)C(=O)N[C@@H](CCCCN)C(=O)N[C@@H](Cc1ccccc1)C(=O)N[C@@H](CCCCN)C(=O)NCC(=O)N[C@@H](CCCCN)C(=O)N[C@@H](Cc1ccccc1)C(=O)N[C@@H](Cc1c[nH]c2ccccc12)C(=O)N[C@@H](Cc1ccccc1)C(=O)N[C@@H](Cc1c[nH]c2ccccc12)C(=O)O (H-GCKKYRRFRWKFKGKFWFW-OH) | Active | Non-toxic | – | 64 (≈ 24.1 µM) | 32 (≈ 12.1 µM) | 128 (≈ 48.2 µM) | 64 (≈ 24.1 µM) | 64 (≈ 24.1 µM) | 64 (≈ 24.1 µM) | 64 (≈ 24.1 µM) | 128 (≈ 48.2 µM) | 64 (≈ 24.1 µM) | – |
| CC[C@H](C)[C@H](NC(=O)CN)C(=O)NCC(=O)N[C@@H](C)C(=O)N[C@H](C(=O)N[C@@H](CC(C)C)C(=O)N[C@@H](CCCCN)C(=O)N[C@H](C(=O)N[C@@H](CC(C)C)C(=O)N[C@H](C(=O)N[C@H](C(=O)NCC(=O)N[C@@H](CC(C)C)C(=O)N1CCC[C@H]1C(=O)N[C@@H](C)C(=O)N[C@@H](CC(C)C)C(=O)N[C@H](C(=O)N[C@@H](CO)C(=O)N[C@@H](Cc1c[nH]c2ccccc12)C(=O)N[C@H](C(=O)N[C@@H](CCCCN)C(=O)N[C@@H](CCCNC(=N)N)C(=O)N[C@@H](CCCCN)C(=O)N[C@@H](CCCNC(=N)N)C(=O)N[C@@H](CCC(N)=O)C(=O)N[C@@H](CCC(N)=O)C(N)=O)[C@@H](C)CC)[C@@H](C)CC)[C@@H](C)O)[C@@H](C)O)C(C)C)C(C)C [MELITTIN] | – | Non-toxic | – | – | – | – | – | – | – | – | – | – | – |
| N=C(N)NCCC[C@H](NC(=O)[C@H](Cc1ccccc1)NC(=O)[C@H](CCCCN)NC(=O)[C@H](Cc1c[nH]c2ccccc12)NC(=O)[C@H](CS)NC(=O)[C@H](Cc1ccccc1)NC(=O)[C@H](CCCNC(=N)N)NC(=O)[C@H](Cc1ccc(O)cc1)NC(=O)[C@H](CCCCN)NC(=O)CNC(=O)[C@H](Cc1ccccc1)NC(=O)[C@H](CCCNC(=N)N)NC(=O)[C@H](Cc1c[nH]c2ccccc12)NC(=O)[C@H](CCCCN)NC(=O)CNC(=O)[C@H](Cc1ccccc1)NC(=O)[C@@H](N)CCCCN)C(=O)NCC(=O)N[C@@H](Cc1c[nH]c2ccccc12)C(=O)N[C@@H](CCCCN)C(=O)O (H-KFGKWRFGKYRFCWKFRGWK-OH) | – | Non-toxic | – | – | – | – | – | – | – | – | – | – | – |
| N=C(N)NCCC[C@H](NC(=O)[C@H](Cc1ccc(O)cc1)NC(=O)[C@H](CCCCN)NC(=O)[C@H](CCCCN)NC(=O)[C@H](CS)NC(=O)CN)C(=O)N[C@@H](CCCNC(=N)N)C(=O)N[C@@H](Cc1ccccc1)C(=O)N[C@@H](CCCNC(=N)N)C(=O)N[C@@H](Cc1c[nH]c2ccccc12)C(=O)N[C@@H](CCCCN)C(=O)N[C@@H](Cc1ccccc1)C(=O)N[C@@H](CCCCN)C(=O)NCC(=O)N[C@@H](CCCCN)C(=O)N[C@@H](Cc1ccccc1)C(=O)N[C@@H](Cc1c[nH]c2ccccc12)C(=O)N[C@@H](Cc1ccccc1)C(=O)N[C@@H](Cc1c[nH]c2ccccc12)C(=O)N[C@@H](CS)C(=O)NCC(=O)O (H-GCKKYRRFRWKFKGKFWFWCG-OH) | Active | – | Active | 128 (≈ 45.5 µM) | 128 (≈ 45.5 µM) | 512 (≈ 182 µM) | 128 (≈ 45.5 µM) | 64 (≈ 22.7 µM) | 1020 (≈ 364 µM) | 128 (≈ 45.5 µM) | 256 (≈ 90.9 µM) | 32 (≈ 11.4 µM) | – |
